Source: patent publication US5296492A, “Certain chroman derivatives useful for treating symptoms caused by contraction of smooth muscles, circulatory diseases or epilepsy” (Nippon Kayaku Kabushiki Kaisha, priority 1991, dated 1994)
Where two headings read alike, the source gives them in different places.

What was measured:
[1] = tested on: rat aorta; test: Spasmolytic effect in isolated rat aorta; format: cell-based, male SD rat; conditions: 20 mM KCl contraction, 37° C., maximal inhibition with papaverine hydrochloride 10^-4 M = 100, mean value±standard error, n = 3, read-out: -log IC50 (spasmolytic effect on rat aorta contracted with 20 mM KCl) (converted)
Method: (§1) 1. Spasmolytic effect in isolated rat aorta and dog coronary artery
The thoracic aorta of male SD rat was isolated and cut into 3 mm wide ring preparations. Each preparation was mounted in a 10 ml organ bath filled with Krebs-Henseleit solution by applying a resting tension of 1.0 g. The nutrient solution was maintained at 37° C. and aerated with a 95% O2 /5% CO2 gas. The isometric tension of the preparation was measured with a FD pickup and recorded on a recorder.
(§2) After about one hour of equilibration time, a compound of this invention was cumulatively administered to the preparation contracted with 20 mM KCl, and its spasmolytic effect was examined. The spasmolytic action of the compound of this invention was expressed as percentage of inhibition, taking the maximal inhibition obtained with papavarine hydrochloride (10^-4 M) as 100. The IC50 value (50% inhibition) for the compound of this invention was determined from the concentration-response curve fitted by non-linear regressions with a personal computer, and its potency expressed in terms of -log IC50 was shown as [mean value±standard error].

[2] = tested on: dog coronary artery; test: Spasmolytic effect in isolated dog coronary artery; format: cell-based, mongrel dogs; conditions: for spasmolytic effect on a contraction caused by 80 mM KCl (in words): potencies compared with 20 mM KCl; for IC50: Canis lupus familiaris, mean value±standard error
Method: as §1, §2
Ring preparations of coronary artery from mongrel dogs of either sex were prepared and isometric tension of the preparation was measured by the same method as above, except that the resting tension was adjusted to 1.5 g. For estimating the mechanism of action, the effect on the contraction caused by 80 mM KCl was also studied.

[3] = Acute toxicity in mice (up and down method); conditions: mouse, in vivo, iv
Method: Acute toxicity of the test drug was evaluated in mice, following intravenous administration. The LD50 of the test drug was determined using up and down method.

[4] = tested on: guinea-pig trachea; test: Bronchodilator effect in isolated tracheal smooth muscle (guinea-pig trachea, leukotriene D4 contraction); format: cell-based, Hartley male guinea-pigs
Method: 2. Bronchodilator effect in isolated tracheal smooth muscle
Hartley male guinea-pigs (NISSEIKEN) were stunned by a blow to the head and their tracheas were removed. Each trachea was carefully made into 20 small pieces so as not to injure them, and five pieces of them were linked together with a yarn to prepare tracheal strip chain. The preparation was suspended in 15 ml of an organ bath filled with a modified Krebs-Henseleitsolution containing indomethacin (b 5×10^-6 M) by applying a tension of 0.5 g. The solution was maintained at 35° C. and aerated with a 95% O2 /5% CO2 gas. After an equilibration time of one hour, the experiment was carried out. The results were isometrically recorded on a Multipen Recorder (R-64VL, mfd. by Rika Denki Kogyo) through a transducer (TD-112S, mfd. by Nihon Kohden) and an input box (JD-112S, mfd. by Nihon Kohden).
Each preparation was made to attain the maximal contraction with carbachol (3×10^-6 and 10^-5 M) and washed. When it reached an equilibrium, it was exposed to L-cysteine as an aminopeptidase inhibitor (3×10^-3 M). After thirty minutes, a contractive reaction was made to take place with leukotriene D4 (3×10^-9 M). When the contraction had reached a constant value, a test drug (10^-8 to 3×10^-5 M) was cumulatively applied into the bath at a dose ratio of 3. Finally, the maximal relaxation of each preparation was confirmed with papaverine.
The relaxations given by each test drug at various concentrations were converted to percentages of relaxation, taking the maximal relaxation obtained with papaverine as 100. The maximal relaxation (%) of each test drug and -log of ED30 (M) which is the dose of each test drug giving a percentage of relaxation of 30% as determined by a linear regression method from percentages of relaxation at two different doses are shown below.

[5] = 20 mM KCl contraction, n = 3 (n = 4 for Compound No. 81), read-out: -log IC50 (spasmolytic effect on dog coronary artery, 20 mM KCl) (converted)
[6] = 80 mM KCl contraction, n = 3, read-out: -log IC50 (spasmolytic effect on dog coronary artery, 80 mM KCl) (converted)

Row | IC50 [1] | SMILES | other results
1 | 525 nM | CC1(C)C=C(n2ccc(CO)cc2=O)c2cc(C#N)ccc2O1 [Compound No. 161, 6-cyano-2,2-dimethyl-4-(1,2-dihydro-2-oxo-4-hydroxymethyl-1-pyridinyl)-2H-benzo[b]pyran] | 
2 | 39.8 nM | CC1(C)C=C(n2ccc(CCCCO[N+](=O)[O-])cc2=O)c2cc(C#N)ccc2O1 [Compound No. 81, 6-cyano-2,2-dimethyl-4-{1,2-dihydro-2-oxo-4-(4-nitroxybutyl)-1-pyridinyl}-2H-benzo[b]pyran] | spasmolytic effect on a contraction caused by 80 mM KCl (in words) [2]: also exhibited a spasmolytic effect on a contraction caused by 80 mM KCl, though their potencies are lower than those against the contraction caused by 20 mM KCl; IC50 [2, 5]: 0.0316 nM; IC50 [2, 6]: 229 nM
3 | 67.6 nM | CC(O[N+](=O)[O-])c1ccn(C2=CC(C)(C)Oc3ccc(C#N)cc32)c(=O)c1 (centres unmarked) [Compound No. 72, 6-cyano-2,2-dimethyl-4-{1,2-dihydro-2-oxo-4-(1-nitroxyethyl)-1-pyridinyl}-2H-benzo[b]pyran] | 
4 | 447 nM | CC1(C)C=C(n2ccc(C=O)cc2=O)c2cc(C#N)ccc2O1 [Compound No. 191, 6-cyano-2,2-dimethyl-4-(1,2-dihydro-2-oxo-4-formyl-1-pyridinyl)-2H-benzo[b]pyran] | 
5 | 1120 nM | CC1(C)C=C(n2ccc(CCCO)cc2=O)c2cc(C#N)ccc2O1 [Compound No. 192, 6-cyano-2,2-dimethyl-4-(1,2-dihydro-2-oxo-4-(3-hydroxypropyl)-1-pyridinyl}-2H-benzo[b]pyran] | 
6 | 51.3 nM | CC1(C)Oc2ccc(C#N)cc2[C@@H](n2ccc(CO[N+](=O)[O-])cc2=O)[C@@H]1O (relative stereo) [Compound No. 2, trans-3-hydroxy-6-cyano-3,4-dihydro-2,2-dimethyl-4-(1,2-dihydro-2-oxo-4-nitroxymethyl-1-pyridinyl)-2H-benzo[b]pyran] | 
7 | 60.3 nM | C=Cc1ccn(C2=CC(C)(C)Oc3ccc(C#N)cc32)c(=O)c1 [Compound No. 190, 6-cyano-2,2-dimethyl-4-(1,2-dihydro-2-oxo-4-vinyl-1-pyridinyl)-2H-benzo[b]pyran] | 
8 | 135 nM | CC1(C)C=C(n2cc(CO[N+](=O)[O-])ccc2=O)c2cc(C#N)ccc2O1 [Compound No. 70, 6-cyano-2,2-dimethyl-4-(1,2-dihydro-2-oxo-5-nitroxymethyl-1-pyridinyl)-2H-benzo[b]pyran] | 
9 | 813 nM | CC1(C)C=C(n2cccc(CO)c2=O)c2cc(C#N)ccc2O1 [Compound No. 160, 6-cyano-2,2-dimethyl-4-(1,2-dihydro-2-oxo-3-hydroxymethyl-1-pyridinyl)-2H-benzo[b]pyran] | 
10 | 12.6 nM | CC1(C)C=C(n2ccc(CCCO[N+](=O)[O-])cc2=O)c2cc(C#N)ccc2O1 [Compound No. 77, 6-cyano-2,2-dimethyl-4-{1,2-dihydro-2-oxo-4-(3-nitroxypropyl)-1-pyridinyl}-2H-benzo[b]pyran] | spasmolytic effect on a contraction caused by 80 mM KCl (in words) [2]: also exhibited a spasmolytic effect on a contraction caused by 80 mM KCl, though their potencies are lower than those against the contraction caused by 20 mM KCl; IC50 [2, 5]: 2.14 nM; IC50 [2, 6]: 380 nM
11 | 1350 nM | CC1(C)C=C(n2ccc(CCCCO)cc2=O)c2cc(C#N)ccc2O1 [Compound No. 193, 6-cyano-2,2-dimethyl-4-{1,2-dihydro-2-oxo-4-(4-hydroxybutyl)-1-pyridinyl}-2H-benzo[b]pyran] | 
12 | 138 nM | CC1(C)C=C(n2cc(CO)ccc2=O)c2cc(C#N)ccc2O1 [Compound No. 162, 6-cyano-2,2-dimethyl-4-(1,2-dihydro-2-oxo-5-hydroxymethyl-1-pyridinyl)-2H-benzo[b]pyran] | 
13 | 5.89 nM | CC1(C)C=C(n2ccc(CO[N+](=O)[O-])cc2=O)c2cc(C(F)(F)F)ccc2O1 [Compound No. 105, 6-trifluoromethyl-2,2-dimethyl-4-(1,2-dihydro-2-oxo-4-nitroxymethyl-1-pyridinyl)-2H-benzo[b]pyran] | 

Row | SMILES | IC50 [1] | other results
14 | CC(=O)O[C@H]1[C@H](n2ccc(CO[N+](=O)[O-])cc2=O)c2cc(C#N)ccc2OC1(C)C (relative stereo) [Compound No. 44, trans-3-acetoxy-6-cyano-3,4-dihydro-2,2-dimethyl-4-(1,2-dihydro-2-oxo-4-nitroxymethyl-1-pyridinyl)-2H-benzo[b]pyran] | 6610 nM | 
15 | CC1(C)C=C(n2ccc(CO[N+](=O)[O-])cc2=O)c2cc(C#N)ccc2O1 [Compound No. 69, 6-cyano-2,2-dimethyl-4-(1,2-dihydro-2-oxo-4-nitroxymethyl-1-pyridinyl)-2H-benzo[b]pyran] | 3.31 nM | LD50 [3]: 81.2 mg/kg; spasmolytic effect on a contraction caused by 80 mM KCl (in words) [2]: also exhibited a spasmolytic effect on a contraction caused by 80 mM KCl, though their potencies are lower than those against the contraction caused by 20 mM KCl; IC50 [2, 5]: 8.71 nM; IC50 [2, 6]: 12600 nM; EC30 ([4]; Cavia porcellus, leukotriene D4 (3×10^-9 M), dose giving 30% relaxation, papaverine maximal relaxation = 100, value is a negative log, read-out: Relaxing action on the contraction caused by leukotriene D4: -log[EX30 (M)] (converted)): 2.24e-07 M; Emax ([4]; Cavia porcellus, leukotriene D4 (3×10^-9 M), test drug 10^-8 to 3×10^-5 M cumulatively, papaverine maximal relaxation = 100, read-out: Relaxing action on the contraction caused by leukotriene D4: Maximal relaxation %): 93.9%; relaxant effect on isolated guinea pig tracheal smooth muscle contracted by leukotriene D4 / bronchodilator activity (in words) ([4]; leukotriene D4): strong relaxant effect
16 | CC1(C)C=C(n2ccc(C(CCO[N+](=O)[O-])O[N+](=O)[O-])cc2=O)c2cc(C#N)ccc2O1 (centres unmarked) [Compound No. 91, 6-cyano-2,2-dimethyl-4-{1,2-dihydro-2-oxo-4-(1,3-dinitroxypropyl)-1-pyridinyl}-2H-benzo[b]pyran] | 102 nM | 
